Results taken from US9751919B2, “Antimicrobial compositions comprising a hyaluronic acid binding peptide and a β-lactam antibiotic” (priority 2012, dated 2017).
Several values for one entry are separate records, joined by “and”; a condition that tells them apart may be missing. Equal entries are not always repeated. Marks after values point to notes of the source that are not given here.

Legend:
Format in all cases: cell-based, Staphylococcus aureus
[1] = test system: CA-MRSA; experiment: MIC (CLSI broth dilution), agent alone
Procedure: (§1) VISA (strains 92, 95 and 96), VRSA (strains 105 and 106) and E. coli (strain 69717) isolates were also tested. One MSSA was used as a control. All MICs were assessed using CLSI guidelines. Also assessed was the activity of cefazolin, ceftriazone, meropenem, and a piperacillin/tazobactam combination antibiotic. Minimum inhibitory concentration (MIC) is the lowest concentration of an antimicrobial that will inhibit the visible growth of a microorganism after incubation.
(§2) Antimicrobial Susceptibility Testing: A custom designed panel of antimicrobials was created. […] These agents were obtained as laboratory grade powders from their respective manufacturers. Stock solutions were prepared and dilutions made as described by the Clinical Laboratory Standards Institute (2005 CLSI). Following two subcultures from frozen stock the MICs of the antimicrobial agents for the isolates were determined by the CLSI 2005 approved broth macrodilution method. Briefly, test tubes containing doubling antibiotic dilutions (2 ml per tube) of cation adjusted Mueller-Hinton broth (eg. for Enterobacteriaceae) with or without lysed horse blood (2-5% V/V) [eg. for S. pneumoniae] were inoculated to achieve a final concentration of approximately 5×10^5 CFU/ml and incubated in ambient air for 24 hours prior to reading. Colony counts were performed periodically to confirm inocula. Quality control was performed every two weeks using a variety of ATCC QC organisms including; S. aureus 29213, E. faecalis 29212, E. coli 25922 and P. aeruginosa 27853.
(§3) One MSSA was used as a control. All MICs were assessed using CLSI guidelines.
(§4) One MS SA and ATCC reference strains were used as controls. All MICs were assessed using CLSI guidelines.

[2] = test system: HA-MRSA; experiment: MIC (CLSI broth dilution), agent alone; settings: for PEP35 (MIC): peptide alone
Procedure: as §1, §2, §3, §4

[3] = test system: MSSA; experiment: MIC (CLSI broth dilution), agent alone; settings: for MIC: agent alone
Procedure: as §1, §2, §3, §4

[4] = test system: CA-MRSA; experiment: Checkerboard assay (FIC index)
Procedure: (§5) Checkerboard assays were carried out as described by Bonapace et al.
(§6) Diagnostic Microbiology and Infectious Diseases 2002; 44:363-366. In brief, checkerboard assays were performed in 96 well microtitre trays using an 8-by-8 well configuration. […] 96-well custom designed microtitre plates contained 100 ul/well of cation adjusted Mueller-Hinton broth (eg. for Enterobacteriaceae) with or without lysed horse blood (2-5% V/V) [eg. for S. pneumoniae] and were inoculated to achieve a final concentration of approximately 5×10^5 CFU/ml and incubated in ambient air for 24 hours prior to reading. Colony counts were performed periodically to confirm inocula. Quality control was performed every two weeks using a variety of ATCC QC organisms including; S. pneumoniae 49619, S. aureus 29213, E. faecalis 29212, E. coli 25922 and P. aeruginosa 27853. […] All peptides were assessed for synergy with β-lactams and vancomycin. For all antimicrobials as well as the peptides, CLSI criteria were used.
(§7) The fractional inhibitory concentration index (FIC index) was used to interpret synergy, antagonism or additivity/indifference. FIC index=FIC of drug A+FIC of drug B where:
(§8) The FIC of drug A and drug B was calculated as follows, FIC drug A=MIC of drug A in combination/MIC of drug A alone and FIC of drug B=MIC of drug B in combination/MIC of drug B alone. Synergy was defined as FIC index ≦0.5, additivity/indifference defined as a FIC between 0.5 and 4 and antagonism defined as an FIC index >4.
(§9) The fractional inhibitory concentration index (FIC index) was used to interpret synergy, antagonism or additivity/indifference. FIC index=FIC of drug A+FIC of drug B where the FIC of drug A and drug B was calculated as follows, FIC drug A=MIC of drug A in combination/MIC of drug A alone and FIC of drug B=MIC of drug B in combination/MIC of drug B alone. Synergy was defined as FIC index ≦0.5, additivity/indifference defined as an FIC of between 0.5 and 4 and antagonism defined as an FIC index >4.
(§10) The checkerboard assays were carried out as described by Eliopoulos and Moellering (Chapter 9) in Antibiotic in Laboratory Medicine, Lorian Ed. 1996 as well as Bonapace et al. Diagnostic Microbiology and Infectious Diseases 2002; 44:363-366 and Bonapace et al. Diagnostic Microbiology and Infectious Diseases 2000; 38:43-50. In brief, checkerboard assays were performed in 96 well microtitre trays using an 8-by-8 well configuration. […] 96-well custom designed microtitre plates contained 100 ul/well of cation adjusted Mueller-Hinton broth (eg. for Enterobacteriaceae) with or without lysed horse blood (2-5% V/V) [eg. for S. pneumoniae] and were inoculated to achieve a final concentration of approximately 5×10^5 CFU/ml and incubated in ambient air for 24 hours prior to reading. Colony counts were performed periodically to confirm inocula. Quality control was performed every two weeks using a variety of ATCC QC organisms including; S. pneumoniae 49619, S. aureus 29213, E. faecalis 29212, E. coli 25922 and P. aeruginosa 27853.
(§11) The FIC of drug A and drug B is calculated as follows, FIC drug A=MIC of drug A in combination/MIC of drug A alone and FIC of drug B=MIC of drug B in combination/MIC of drug B alone. Synergy is defined as FIC index ≦0.5, additivity/indifference FIC >0.5-4 and antagonism FIC index >4.
(§12) These agents were obtained as laboratory grade powders from their respective manufacturers. Stock solutions were prepared and dilutions made as described by the Clinical Laboratory Standards Institute (2005 CLSI).

[5] = test system: HA-MRSA; experiment: Checkerboard assay (FIC index)
Procedure: as §5, §6, §7, §8, §9, §10, §11, §12

[6] = test system: VRSA; experiment: Checkerboard assay (FIC index)
Procedure: as §5, §6, §7, §8, §9, §10, §11, §12

[7] = CA-MRSA 69615 (USA400), agent alone, in µg/mL
[8] = CA-MRSA 70857 (USA400), agent alone, in µg/mL
[9] = HA-MRSA 70798 (USA100/800), agent alone, in µg/mL
[10] = HA-MRSA 77098 (USA100/800), agent alone
[11] = antibiotic combined with PEP35 (added together), CA-MRSA 70857 (USA400)
[12] = β-lactam combined with HybPEP35-1, CA-MRSA 69615 (USA400)
[13] = β-lactam combined with PEP-52, CA-MRSA 69615 (USA400)
[14] = β-lactam combined with Scrambled PEP35, CA-MRSA 69615 (USA400)
[15] = antibiotic combined with PEP35 (added together), HA-MRSA 77090 (USA100/800)
[16] = β-lactam combined with HybPEP35-1, HA-MRSA 70798 (USA100/800)
[17] = β-lactam combined with PEP-52, HA-MRSA 70798 (USA100/800)
[18] = β-lactam combined with Scrambled PEP35, HA-MRSA 70798 (USA100/800)
[19] = antibiotic combined with PEP35 (added together), VRSA 105
[20] = β-lactam combined with HybPEP35-1, VRSA 106
[21] = β-lactam combined with PEP-52, VRSA 106
[22] = β-lactam combined with Scrambled PEP35, VRSA 106
[23] = antibiotic combined with PEP35 (added together), CA-MRSA 69615 (USA400)
[24] = antibiotic combined with PEP35 (added together), HA-MRSA 70798 (USA100/800)
[25] = antibiotic combined with PEP35 (added together), VRSA 106
[26] = HA-MRSA 77090 (USA100/800), agent alone, in µg/mL

Row | Compound | MIC [1, 7] | MIC [1, 8] | MIC [2, 9] | Avg ΣFIC (range) [4, 11] | Avg ΣFIC (range) [5, 15] | Avg ΣFIC (range) [6, 19] | Avg ΣFIC (range) [4, 23] | Avg ΣFIC (range) [5, 24] | Avg ΣFIC (range) [6, 25] | MIC [2, 26] | also measured
1 | CO/N=C(\C(=O)N[C@@H]1C(=O)N2C(C(=O)O)=C(CSc3nc(=O)c(=O)[nH]n3C)CS[C@H]12)c1csc(N)n1 [Ceftriaxone] | 256 and 512 | 256 and 128 | 2048 | 0.51 (0.18-1.015) | 0.27 (0.09-0.53) and 0.27 (0.09-0.56) | 0.45 (0.24-0.56) and 0.54 (0.18-1.06) | – | – | – | – | MIC ([1]; CA-MRSA 69615 (USA400), agent alone, listed as CEFTRIAXONE, in µg/mL): 128 and 64; MIC ([1]; CA-MRSA 69615 (USA400)^a row, antibiotic alone, in µg/mL): 512; MIC ([1]; CA-MRSA 69615 (USA400)^b row, antibiotic alone, in µg/mL): 256; MIC ([2]; HA-MRSA 77090 (USA100/800), agent alone): 512 and 1024/1024; MIC ([2]; HA-MRSA 77090 (USA100/800)^a row, antibiotic alone, in µg/mL): 512; MIC ([2]; HA-MRSA 77090 (USA100/800)^b row, antibiotic alone, in µg/mL): 512; MIC [2, 10]: 4096/4096; MIC ([3]; MSSA 79333): 8 and 4/4; MIC ([3]; MSSA 79333, listed as CEFTRIAXONE): 4/4; Avg ΣFIC (range) [4, 12]: 0.31; Avg ΣFIC (range) [4, 13]: >0.5*; Avg ΣFIC (range) [4, 14]: 0.31; Avg ΣFIC (range) [5, 16]: 0.32; Avg ΣFIC (range) [5, 17]: >1*; Avg ΣFIC (range) [5, 18]: 0.32; Avg ΣFIC (range) [6, 20]: 0.39; Avg ΣFIC (range) [6, 21]: >1*; Avg ΣFIC (range) [6, 22]: 0.39
2 | CN(C)c1cc(NC(=O)CNC(C)(C)C)c(O)c2c1C[C@H]1C[C@H]3[C@H](N(C)C)C(O)=C(C(N)=O)C(=O)[C@@]3(O)C(O)=C1C2=O [Tigecycline, tigecycline] | – | – | – | 0.74 (0.5-1.06) | 0.83 (0.5-1.12) | 0.93 (0.62-1.12) | 0.93 (0.62-1.12) | 0.77 (0.5-1.06) | 1.2 (0.56-2.12) | – | –
3 | LKQKIKHVVKLKVVVKLRSQLVKRKQN (listed as Mus sp.) [PEP35] | 512 | – | 512 | – | – | – | – | – | – | 256 and 512 | MIC ([1]; CA-MRSA (CMRSA7/USA400/MW2) isolates, one per table line, agent alone): 512 µg/mL; PEP35 (MIC) ([2]; HA-MRSA (CMRSA1/USA600)): 256 mg/L; PEP35 (MIC) ([2]; HA-MRSA (CMRSA5/USA500)): 512 mg/L; PEP35 (MIC) ([2]; HA-MRSA (CMRSA8)): 1024 mg/L; MIC ([3]; MSSA 79333, in µg/mL): 128 and 256; PEP35 (MIC) ([3]; S. aureus (printed without strain; control row), peptide alone): 1024 mg/L; MIC ([3]; S. aureus control): 512 µg/mL
4 | C[C@@H](O)[C@H]1C(=O)N2C(C(=O)O)=C(S[C@@H]3CN[C@H](C(=O)N(C)C)C3)[C@H](C)[C@H]12 [Meropenem] | – | – | 64 | – | – | – | 0.49 | 0.30 | 0.91 | – | MIC ([1]; CA-MRSA 70857 (USA400), agent alone): 2 and 4/4; MIC [2, 10]: 64/64; Avg ΣFIC (range) [4, 12]: 0.70; Avg ΣFIC (range) [4, 13]: >1*; Avg ΣFIC (range) [4, 14]: 0.70; Avg ΣFIC (range) [5, 16]: 0.38; Avg ΣFIC (range) [5, 17]: >1*; Avg ΣFIC (range) [5, 18]: 0.38; Avg ΣFIC (range) [6, 20]: 0.91; Avg ΣFIC (range) [6, 21]: >1*; Avg ΣFIC (range) [6, 22]: 0.91
5 | KKKKKLQLQLNLIKKKVQVSVVVVRRH (Reordered human peptide sequence) [Scrambled PEP35] | 256 | 256 | 256 | – | – | – | – | – | – | 512 | MIC ([3]; MSSA 79333, in µg/mL): 64
6 | piperacillin/tazobactam | 32 | 32 | 4 | – | – | – | – | – | – | 16 | MIC ([3]; MSSA 79333): ≦1
7 | CCCCCCCCCC(=O)N[C@@H](Cc1c[nH]c2ccccc12)C(=O)N[C@H](CC(N)=O)C(=O)N[C@@H](CC(=O)O)C(=O)N[C@@H]1C(=O)NCC(=O)N[C@@H](CCCN)C(=O)N[C@@H](CC(=O)O)C(=O)N[C@H](C)C(=O)N[C@@H](CC(=O)O)C(=O)NCC(=O)N[C@H](CO)C(=O)N[C@@H]([C@H](C)CC(=O)O)C(=O)N[C@@H](CC(=O)c2ccccc2N)C(=O)O[C@@H]1C [Daptomycin, daptomycin] | – | – | – | 1.18 (1.015-1.5) | 1.27 (1.015-2.03) | 0.52 (0.37-0.62) | 1.18 (1.015-1.5) | 0.99 (0.53-1.5) | 0.91 (0.56-1.25) | – | –
8 | CC(=O)NC[C@H]1CN(c2ccc(N3CCOCC3)c(F)c2)C(=O)O1 [Linezolid, linezolid] | – | – | – | 0.89 (0.5-1.12) | 0.74 (0.53-1.06) | 0.80 (0.5-1.06) | 0.80 (0.515-1.12) | 0.70 (0.5-1.06) | 0.83 (0.5-1.12) | – | –
